Results: patent publication US20200400567A1, “FUSION POLYPEPTIDE” (PEKING UNIVERSITY, priority 2017, published 2020)
Entries after “also recorded” stand apart in the source; their conditions may differ.

Legend:
[1] = system: human β2 adrenergic receptor; assay: GRAB-EPI sensor fluorescence response (ΔF/F0) to ISO, drug perfusion in HEK293T cells; type: cell-based; settings: GRAB-EPI 1.0 in cells, blocking agent mixed with ISO
Experimental: (§1) After DNA encoding specific GRAB sensor was introduced into cells by transfection, fluorescence imaging combined with perfusion experiment was. The imaging capture of HEK293T cells was performed using an Olympus IX81 inverted microscope, 40×NA: 1.35 oil lens, 475/28 excitation light filter, and 515LP emission light filter. The optical signal was collected by a Zyla sCMOS DG-152V-Cle FI camera (Andor), and Lambda DG-4 from Sutter Instuments company was used as a fluorescent light source. The exposure time was set to less than 50 ms and the acquisition frequency was 5 seconds. The entire imaging system was overall controlled by micromanager software.
The detection of the response of the GRAB sensor to the ligand (ΔF/F0) was performed using a drug perfusion method. […]
Fluorescence imaging data was processed using ImageJ software. For the performance of GRAB sensors in HEK293T cells and neurons, the fluorescence of entire cell body was selected as the data processing region. For living Drosophila imaging, fluorescence images on the same Z axis were analyzed by ImageJ software. The change in the fluorescence signal was indicated by its relative difference. The signal of background area without the expression of the sensor was first subtracted from the fluorescence signal, so as to obtain the real expression of the intensity of the fluorescent protein. […]

[2] = system: human acetylcholine receptor M3R subtype; assay: GRAB-ACh 1.0 in acute mouse hippocampus brain slices, local perfusion, two-photon imaging; type: cell-based, mice; settings: GRAB-ACh 1.0 expressing cells in brain slices
From the text: The DNA encoding GRAB-ACh 1.0 sensor was packed in lentivirus and expressed in the hippocampal neurons of mice, and its fluorescence performance was detected by local perfusion of acetylcholine.

[3] = system: human acetylcholine receptor M3R subtype; assay: GRAB-ACh 1.0 in cultured rat cortical neurons, perfusion; type: cell-based
Experimental: Newborn Sprague-Dawley rats were used for the primary culture of rat neurons. After the skin of rat was cleaned with alcohol, the head was dissected with surgical instruments, the brain was removed out and the vascular membrane on the surface of the cortex was carefully removed. The cortical tissue was cut into pieces and placed in a 0.25% trypsin solution, and digested for 10 minutes in an incubator at 37° C. After the digestion, the digestion was terminated with DMEM medium containing 5% FBS, and the cells were further isolated by slowly pipetting up and down ten times with a pipette. After standing for 5 minutes, the pellet containing the tissue debris was discarded and the upper layer solution was collected and centrifuged at 1,000 rpm for 5 minutes in a centrifuge. Thereafter, the supernatant was discarded and the neurons were resuspended with the Neurobasal+B27 medium which was used for culturing the neurons. The cell density was calculated using a cell counting chamber. After that, the cells were diluted at a density of 0.5-1×10^6 cells/ml and plated on the slides coated with poly-lysine (purchased from Sigma). […]
The optical response of neurons expressing the neurotransmitter sensor was observed by perfusion with a neurotransmitter solution. The neurotransmitter-specific optical signals were recorded, which were fast and stable, and have good repeatability in different neurons. […]

[4] = system: human acetylcholine receptor M3R subtype; assay: GRAB-ACh sensor fluorescence response to ACh, drug perfusion in HEK293T cells; type: cell-based; settings: GRAB-ACh 1.0 in cells, blocking agent mixed with ACh
Experimental: as §1
The detection of the response of the GRAB sensor to the ligand (ΔF/F0) was performed using a drug perfusion method. The cells were placed in a standard physiological solution, and the formula thereof is: […]
The pH of the physiological solution was adjusted to about 7.4, and the small molecule drug was diluted with a part of the physiological solution to formulate solutions of respective concentrations of the small molecule ligand. […] Unless explicitly specified, the concentration of isoproterenol (ISO) for perfusion was 2 μM, and the concentration of acetylcholine for perfusion was 100 μM.
The perfusion system was equipped on a microscope, including a solution-introduced system made of syringe for injection, a multi-way valve, an imaging workbench and a suction pump. During the perfusion process, the imaging workbench was placed above the objective lens of the inverted microscope, and then the slide on which cell plated were placed in the workbench. Perfusion of different drugs were performed by controlling the switches of different pipes. In order to control the level of the solution in the workbench, the perfusion speed was set to one drop or so per second. After each drug treatment, the cells were washed with a physiological solution for more than five minutes to ensure that there were no residual drugs that will affect subsequent experiments. After the end of each experiment, the perfusion pipe and the workbench were cleaned with 75% ethanol three times to ensure that the residual drugs and impurities were fully washed away.
Fluorescence imaging data was processed using ImageJ software. For the performance of GRAB sensors in HEK293T cells and neurons, the fluorescence of entire cell body was selected as the data processing region. For living Drosophila imaging, fluorescence images on the same Z axis were analyzed by ImageJ software. The change in the fluorescence signal was indicated by its relative difference. The signal of background area without the expression of the sensor was first subtracted from the fluorescence signal, so as to obtain the real expression of the intensity of the fluorescent protein. Then, by calculating the fluorescence value F after adding the drug and the average fluorescence value F0 before adding, the relative fluorescence change ΔF/F=(F−F0)/F0 was obtained as the fluorescence response of the sensor to a specific drug. The change of ΔF/F0 with time was further plotted by Origin 8.6 software.
Based on GRAB-ACh 1.0, this peptide linker was optimized. First, based on a flexible amino acid (glycine, alanine), the peptide segment was screened for optimal length. The specific strategy was to change the length of the peptide linkers at the N-terminus and C-terminus from 0 to 5 amino acids, respectively, and to randomly combine the N-terminus with C-terminus to obtain all possible permutations. Fusion protein expression vectors containing various arrangements were expressed in HEK293T cells and subjected to perfusion experiments.

[5] = system: Gαq-mediated signal transduction pathway; assay: TGFα release in Gαq stable cell lines; type: cell-based
From the text: The coupling of GRAB-ACh4.0 and downstream Gαq was detected. First, three stable cell lines were constructed based on the Gαq cell line: M3R (marked as CHRM3 in FIG. 51), GRAB-ACh4.0, and blank (marked as Gq in FIG. 51) cell lines; then, the release of TGFα was used to characterize the extent to which the Gαq protein was activated. […], causing the release of TGF-α with alkaline phosphatase even when there is no signal from Gαq. Therefore, TPA was added to cells as a positive control.

[6] = system: GRAB-GDA3.0 signal in mushroom body (MB); assay: Odor-stimulated GRAB-GDA3.0 signal in mushroom body, in vivo two-photon imaging; set-up: species or system Drosophila
Chain of GRAB-GDA3.0 signal in mushroom body (MB) (as listed by the source): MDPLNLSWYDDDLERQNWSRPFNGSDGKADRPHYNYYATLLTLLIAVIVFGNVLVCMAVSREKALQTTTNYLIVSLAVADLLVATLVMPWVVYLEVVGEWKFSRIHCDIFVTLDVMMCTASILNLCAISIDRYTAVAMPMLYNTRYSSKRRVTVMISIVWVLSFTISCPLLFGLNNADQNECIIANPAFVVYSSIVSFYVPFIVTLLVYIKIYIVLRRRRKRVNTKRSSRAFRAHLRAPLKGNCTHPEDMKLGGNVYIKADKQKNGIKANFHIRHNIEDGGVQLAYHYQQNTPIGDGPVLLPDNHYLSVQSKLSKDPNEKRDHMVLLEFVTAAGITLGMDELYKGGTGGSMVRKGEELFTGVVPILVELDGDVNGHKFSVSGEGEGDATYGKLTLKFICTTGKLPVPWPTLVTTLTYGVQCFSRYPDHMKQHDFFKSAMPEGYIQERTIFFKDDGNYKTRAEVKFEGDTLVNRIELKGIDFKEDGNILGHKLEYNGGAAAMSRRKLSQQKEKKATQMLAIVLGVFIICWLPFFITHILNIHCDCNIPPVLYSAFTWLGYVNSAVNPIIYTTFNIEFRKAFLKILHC
Experimental: Drosophila were kept in a 25-degree incubator with a standard medium. […] The adult Drosophila to be tested were transferred to a new culture tube within 0-2 days after emergence, and left at room temperature for 8-12 days. Before the imaging, the Drosophila were first fixed in a small dish, and then the square skull part near the eye was surgically removed to expose part of the brain. The adipose tissue and air sacs near the antennal lobes to be imaged were surgically removed to prevent interference with the fluorescent signal. In order to further reduce the degradation of image quality caused by the movement of Drosophila during the imaging, surgical forceps were used to cut the muscles underneath its halter. Throughout the dissection and imaging procedures, the brain of Drosophila was kept in a pre-chilled physiological solution, and the formula thereof is as follows: […]
Drosophila imaging was performed using an Olympus two-photon microscope, including Olympus BX61 WI microscope, 25×NA: 1.05 water lens, and Ti:Sapphire laser mode-locked laser for two-photon excitation. For GRAB sensor imaging experiments, the wavelength of the […] was set to 950 nm in order to successfully excite the fluorescent protein to produce fluorescence. The odor molecule isoamyl acetate (IA) used for stimulating Drosophila was purchased from Sigma, and was diluted in mineral oil at a ratio of 1:100. In the experiment, the isoamyl acetate was further diluted 5-40 times by mixing with air. The air mixed with odor molecules was provided at a position about 1 cm away from the tentacles of the Drosophila through a cavity about 1 cm wide on the experimental table. The odor molecule of different concentrations was tested by controlling the airflow. Each imaging cycle was 17.8 seconds, of which 5 to 10 seconds was the time for providing specific odor molecules. After the imaging experiment for odor function, the imaging area was scanned layer by layer with high resolution setting to obtain the distribution information of the olfactory bulb, which was later identified based on the information of olfactory bulb distribution at the antennal lobe reported in the literature.
The transgenic Drosophila UAS-GRAB-GDA3.0 was constructed to express the GRAB-GDA3.0 sensor in specific cells, driven by the corresponding GAL4 strain. First, GRAB-GDA3.0 was expressed in dopaminergic neurons (DAN) in all Drosophila, and the response induced by odor (isoamyl acetate) was examined by in vivo two-photon imaging (FIG. 39A).
A pharmacological study was performed on GRAB-GDA3.0.
The rate of GDA signal attenuation between normal Drosophila and Drosophila with reduced DAT expression was compared (this is the experiment of gene level research using DAT-RNAi described later). In DAN, the dopamine transporter (DAT) is located in the presynaptic membrane and […] DA intermittently and cyclically from the synapse. DAT-RNAi was used to inhibit DAT expression in DAN (FIG. 40G).

human DRD2 receptor = assay: GRAB-GDA3.0 fluorescence response in HEK293T cells, drug perfusion; type: cell-based; settings: saturated concentration of dopamine, HEK293T cells
Chain of human DRD2 receptor (as listed by the source): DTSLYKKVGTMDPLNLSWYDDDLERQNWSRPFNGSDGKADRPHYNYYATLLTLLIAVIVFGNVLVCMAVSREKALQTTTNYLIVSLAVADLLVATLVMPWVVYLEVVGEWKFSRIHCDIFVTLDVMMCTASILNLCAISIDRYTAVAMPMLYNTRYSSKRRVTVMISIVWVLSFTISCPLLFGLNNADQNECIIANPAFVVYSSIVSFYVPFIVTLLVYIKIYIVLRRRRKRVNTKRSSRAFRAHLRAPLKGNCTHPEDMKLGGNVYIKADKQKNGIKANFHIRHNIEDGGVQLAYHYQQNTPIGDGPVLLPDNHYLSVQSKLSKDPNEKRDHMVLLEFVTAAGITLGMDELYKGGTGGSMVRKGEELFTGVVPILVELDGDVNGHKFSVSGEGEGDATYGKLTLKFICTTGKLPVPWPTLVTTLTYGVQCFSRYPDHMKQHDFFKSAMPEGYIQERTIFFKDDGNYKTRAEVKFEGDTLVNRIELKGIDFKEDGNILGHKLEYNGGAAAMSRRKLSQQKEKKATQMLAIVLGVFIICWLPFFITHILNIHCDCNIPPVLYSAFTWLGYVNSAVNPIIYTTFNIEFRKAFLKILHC
From the text: There are 5 subtypes of human dopamine receptors in the body, which are named DRD1-DRD5. For constructing a fluorescent sensor, the receptors were screened preliminarily by inserting a fluorescent protein at any position in the third intracellular loop of the receptor. […] Specifically, for the third intracellular loop of the human DRD2 receptor, the insertion sites were set every 15 amino acids. Human DRD2 receptors inserted with circular permutated fluorescent proteins at different positions were expressed in HEK293T cells, and drug perfusion experiments were conducted with dopamine. […] After the positions sensitive to conformational change were determined, the surrounding amino acid sites thereof were further screened. The sites surrounding the amino acid position 252 at N-terminus and the sites surrounding the amino acid position 357 at the C-terminus were combined and different sensors were constructed. The sensors were expressed in HEK293T cells and subjected to drug perfusion experiments with dopamine. […] The peptide linkers were GG at the N-terminus and GGAAA at the C-terminus.

[7] = target: GRAB-Oxt-Cter580 sensor (human); assay: cell-based or functional assay
Chain of GRAB-Oxt-Cter580 sensor (human) (chain, as listed by the source limits assumed): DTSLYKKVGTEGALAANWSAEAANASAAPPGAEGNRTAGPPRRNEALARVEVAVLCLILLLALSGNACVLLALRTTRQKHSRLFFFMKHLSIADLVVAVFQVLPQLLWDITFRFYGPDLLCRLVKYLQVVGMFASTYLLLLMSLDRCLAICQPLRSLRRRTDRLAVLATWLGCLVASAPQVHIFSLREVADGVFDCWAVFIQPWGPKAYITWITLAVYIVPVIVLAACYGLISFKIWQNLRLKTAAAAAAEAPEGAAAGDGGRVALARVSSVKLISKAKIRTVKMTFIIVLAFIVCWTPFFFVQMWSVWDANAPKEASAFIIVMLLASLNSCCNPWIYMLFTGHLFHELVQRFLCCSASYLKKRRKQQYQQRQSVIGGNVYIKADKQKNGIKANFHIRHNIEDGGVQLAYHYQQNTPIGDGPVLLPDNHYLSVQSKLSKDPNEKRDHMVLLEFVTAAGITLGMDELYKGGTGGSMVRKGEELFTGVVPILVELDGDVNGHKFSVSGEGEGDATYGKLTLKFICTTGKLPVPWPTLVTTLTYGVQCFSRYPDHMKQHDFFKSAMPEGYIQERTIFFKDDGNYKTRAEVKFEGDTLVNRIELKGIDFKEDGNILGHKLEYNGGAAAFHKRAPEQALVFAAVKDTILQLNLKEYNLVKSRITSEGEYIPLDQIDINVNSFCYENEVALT

Cc1ccc(OCC(O)C(C)NC(C)C)c2c1CCC2 (stereo not shown) [ICI]
effect of blocking agent on agonist (ISO)-induced fluorescence increase [1]: specifically blocked

C[N+](C)(C)CC#CCN1CCCC1=O [Oxo-M]
fluorescence response to agonist [2]: respond to; also recorded: obvious fluorescence enhancement

C[N+]1(C)[C@@H]2C[C@@H](OC(=O)C(O)(c3cccs3)c3cccs3)C[C@H]1[C@@H]1O[C@@H]12 [Tio, Tiotropium bromide]
effect of receptor blocker on response to acetylcholine [3]: can block
effect of blocking agent on ligand (Ach)-induced fluorescence increase [4]: specifically blocked
effect of antagonist on downstream signal induced by M3R ([5]; ACh): completely block

GRAB-GDA3.0: human DRD2 receptor, positions 254 to 360 truncated, cpEGFP inserted, linkers GG-GGAAA, SEQ ID NO: 26
decay τ of odor-induced GDA signal ([6]; DAT-RNAi Drosophila): 1.85 s
decay τ of odor-induced GDA signal ([6]; WT Drosophila): 0.48 s
signal change (human DRD2 receptor): 110%

Oxytocin (from UniProt P01178 20-28) (peptide)
change in fluorescence signal (ΔF/F0) of the sensor on perfusion with the agonist (% ΔF/F0 at 1 µM Oxytocin) [7]: 10

WT-M3R: natural M3 type acetylcholine receptor without cpEGFP insertion
activation of Gαq-mediated signal transduction pathway ([5]; gradient concentrations of ACh): activated the Gαq-mediated signal transduction pathway
